# ChEMBL document CHEMBL5584357, “Corannulene Amino Acid-Derived Water-Soluble Amphiphilic Buckybowls as Broad-Spectrum Membrane Targeting Antibacterial Agents” (J Med Chem, 2024)
# Active and inactive are the calls of the source. No cut-off for these calls is given here.
# Tests used:
# Staphylococcus aureus [1] = assay: Bactericidal activity against Staphylococcus aureus VRS1 at 4 times MIC incubated for 24 hrs by time kill assay relative to control; type: functional
# Staphylococcus aureus [2] = assay: Antibacterial activity against Staphylococcus aureus ATCC 25923 incubated for 16 to 18 hrs by broth microdilution method; type: functional; details: time 16-18 hrs
# Escherichia coli [3] = assay: Induction of cell membrane damage in Escherichia coli ATCC 25922 at 5 times MIC incubated for 60 mins by PI staining based FACS analysis; type: functional, organism-based
# Acinetobacter baumannii = assay: Antibacterial activity against Acinetobacter baumanni ATCC 19606 incubated for 16 to 18 hrs by broth microdilution method; type: functional; details: time 16-18 hrs
# Escherichia coli [4] = assay: Induction of cell membrane damage in Escherichia coli ATCC 25922 at 1 to 5 times MIC by SYTOX green fluorescence based analysis; type: functional, organism-based
# Escherichia coli [5] = assay: Antibacterial activity against Escherichia coli ATCC 25922 incubated for 16 to 18 hrs by broth microdilution method; type: functional; details: time 16-18 hrs
# Staphylococcus aureus [6] = assay: Induction of cell membrane damage in Staphylococcus aureus ATCC 25923 at 1 to 5 times MIC by SYTOX green fluorescence based analysis; type: functional, organism-based
# Escherichia coli [7] = assay: Bactericidal activity against Escherichia coli ATCC 25922 incubated for 16 hrs; type: functional
# Staphylococcus aureus [8] = assay: Bactericidal activity against Staphylococcus aureus ATCC 25923 incubated for 16 hrs; type: functional
# Escherichia coli [9] = assay: Induction of cell membrane damage in Escherichia coli ATCC 25922 assessed as membrane blebbing at 5 times MIC incubated for 60 mins by SEM analysis; type: functional, organism-based
# Staphylococcus aureus [10] = assay: Induction of cell membrane damage in Staphylococcus aureus ATCC 25923 assessed as bacterial content leakage at 5 times MIC incubated for 60 mins by SEM analysis; type: functional, organism-based
# Pseudomonas aeruginosa = assay: Antibacterial activity against Pseudomonas aeruginosa ATCC BAA-427 incubated for 16 to 18 hrs by broth microdilution method; type: functional; details: time 16-18 hrs
# Staphylococcus aureus [11] = assay: Induction of cell membrane damage in Staphylococcus aureus ATCC 25923 assessed as membrane distortion at 5 times MIC incubated for 60 mins by SEM analysis; type: functional, organism-based
# Staphylococcus aureus [12] = assay: Induction of cell membrane damage in Staphylococcus aureus ATCC 25923 assessed as membrane blebbing at 5 times MIC incubated for 60 mins by SEM analysis; type: functional, organism-based
# Staphylococcus aureus [13] = assay: Antibacterial activity against methicillin-resistant Staphylococcus aureus ATCC 33591 incubated for 16 to 18 hrs by broth microdilution method; type: functional; details: time 16-18 hrs
# Staphylococcus aureus [14] = assay: Antibacterial activity against methicillin-resistant Staphylococcus aureus ATCC BAA-44 incubated for 16 to 18 hrs by broth microdilution method; type: functional; details: time 16-18 hrs
# Escherichia coli [15] = assay: Induction of cell membrane damage in Escherichia coli ATCC 25922 assessed as wrinkling on bacterial surface at 5 times MIC incubated for 60 mins by SEM analysis; type: functional, organism-based
# [16] = Cytotoxicity against mouse 3T3-L1 cells assessed as cell viability upto 60 uM incubated for 4 hrs by MTT assay relative to control; type: toxicity, cell-based; details: read-out: Activity
# Staphylococcus aureus [17] = assay: Induction of cell membrane damage in Staphylococcus aureus ATCC 25923 at 5 times MIC incubated for 60 mins by PI staining based FACS analysis; type: functional, organism-based
# [18] = Hemolytic activity against human RBCs upto 100 uM incubated for 45 mins by absorbance based assay; type: toxicity, cell-based, Erythrocyte; details: red blood cells (erythrocytes), read-out: Activity
SMILES,Activity (Staphylococcus aureus [1]) [%],MIC (Staphylococcus aureus [2]) [µM],Activity (Escherichia coli [3]),MIC (Acinetobacter baumannii) [µM],Activity (Escherichia coli [4]),MIC (Escherichia coli [5]) [µM],Activity (Staphylococcus aureus [6]),MBC (Escherichia coli [7]) [µM],MBC (Staphylococcus aureus [8]) [µM],Activity (Escherichia coli [9]),Activity (Staphylococcus aureus [10]),MIC (Pseudomonas aeruginosa) [µM],Activity (Staphylococcus aureus [11]),Activity (Staphylococcus aureus [12]),MIC (Staphylococcus aureus [13]) [µM],MIC (Staphylococcus aureus [14]) [µM],Activity (Escherichia coli [15]),"viability at 4 h, up to 60 µM [16] [%]",Activity (Staphylococcus aureus [17]),"hemolysis at 0.75 h, up to 100 µM [18] [%]"
CCCCCCCCCC(=O)N[C@@H](Cc1c[nH]c2ccccc12)C(=O)N[C@H](CC(N)=O)C(=O)N[C@@H](CC(=O)O)C(=O)N[C@@H]1C(=O)NCC(=O)N[C@@H](CCCN)C(=O)N[C@@H](CC(=O)O)C(=O)N[C@H](C)C(=O)N[C@@H](CC(=O)O)C(=O)NCC(=O)N[C@H](CO)C(=O)N[C@@H]([C@H](C)CC(=O)O)C(=O)N[C@@H](CC(=O)c2ccccc2N)C(=O)O[C@@H]1C,100,,,,,,,,,,,,,,,,,,,
COC(=O)[C@H](Cc1cc2ccc3ccc4ccc5ccc1c1c5c4c3c21)NC(=O)[C@H](N)CCCCN,,25,Active,50,inactive,100,Active,200,50,Active,Active,50,Active,Active,25,25,Active,3,Active,
O=C(O)c1cn(C2CC2)c2cc(N3CCNCC3)c(F)cc2c1=O [CIPROFLOXACIN],,0.39,,0.39,,0.39,,0.39,0.39,,,1.56,,,1.56,0.39,,,,
COC(=O)[C@H](CCCNC(=N)NS(=O)(=O)c1ccc(C)cc1)NC(=O)[C@@H](N)Cc1cc2ccc3ccc4ccc5ccc1c1c5c4c3c21,,> 400,Active,> 400,,> 400,,,,,,> 400,,,> 400,> 400,,,Active,
COC(=O)[C@H](Cc1cc2ccc3ccc4ccc5ccc1c1c5c4c3c21)NC(=O)CNC(=O)[C@@H](N)CCCCN,,12.5,Active,100,inactive,50,Active,50,50,,,50,,,12.5,12.5,,47,Active,~3
